From ChEMBL document CHEMBL1201862, “PubChem BioAssay data set” (2004)
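Protocol summary: plate cells (96-well), add compound at 5 concentrations, incubate 48 h, interpolate endpoints linearly. GI50 is the concentration that inhibits growth by half.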 Calls of active or inactive are those of the source. Cut-off read from the data, not from the text of the source: active = GI50 up to about 1.1 µM and inactive = higher.

Columns and labels:
Assay in all cases: inhibition of tumour cell growth, NCI panel, 48 h
[1] = tested on: EKVX
[2] = tested on: HCC 2998
[3] = tested on: MOLT-4
[4] = tested on: SK-MEL-28
[5] = tested on: T47D
[6] = tested on: HCT-116
[7] = tested on: M14
[8] = tested on: OVCAR-8
[9] = tested on: UACC-257
[10] = tested on: RXF 393
[11] = tested on: HOP-62
[12] = tested on: SNB-75
[13] = tested on: MDA-MB-231
[14] = tested on: SR
[15] = tested on: OVCAR-4
[16] = tested on: DU-145
[17] = tested on: Malme-3M
[18] = tested on: HL-60
[19] = tested on: ACHN
[20] = tested on: SF-295

Measured: GI50

CC(C)CCC(=O)c1ccoc1 [PERILLAKETONE]
inactive: [1] > 100 µM | [2] > 100 µM | [3] > 100 µM | [4] > 100 µM | [5] > 100 µM | [6] > 100 µM | [7] > 100 µM | [8] > 100 µM | [9] > 100 µM | [10] > 100 µM | [11] > 100 µM | [12] > 100 µM | [13] > 100 µM | [14] > 100 µM | [15] > 100 µM | [16] > 100 µM | [17] > 100 µM | [18] > 100 µM | [19] > 100 µM | [20] > 100 µM
